Patent US20250179550A1, “Methods to imbue polymeric materials with new structures and functions” (The Regents of the University of California, priority 2022, published 2025)

Columns and labels:
[1] = system: MicD-F and ArtGox; test: One-pot cyclodehydration and dehydrogenation of peptide substrates by MicD-F and ArtGox, LC-MS; assay type: biochemical, Microcystis aeruginosa; Arthrospira platensis
Description: Next, we explored whether MicD-F and ArtGox could act in synergy to convert peptides containing non-α-amino acids at the +1 site directly into the corresponding thiazoles 3(a-i) (FIG. 9A). […] ArtGox efficiently oxidized each thiazoline to the corresponding thiazole in yields that exceeded 97% over the two steps for every example (products 3(a-i)) (FIGS. 9B and D). UHPLC analysis of each reaction mixture confirmed that thiazoles 3a-e were the sole reaction product. Coelution with excess flavin mononucleotide precluded UHPLC analysis of thiazoles 3f-i (FIG. 18).
Reactions were analyzed as described above. Under these conditions, every peptide evaluated was a substrate for MicD-F and a few were substrates for both MicD-F and ArtGox (FIG. 10B-C). Substrates containing β^3-amino acid-, β^2-amino acid-, or cyclic β^2,β^3-amino acids at the −1 site (substrates 4(a-d)), were fully consumed under these conditions (<1% unmodified peptide). […] In contrast, substrate 4b, with geminal β^2-methyl substituents, was converted into a 30/70 mixture of thiazoline 5b and thiazole 6b. Substrates 4e-g containing aramid monomers at the −1 position reacted more slowly under these conditions, producing the analogous thiazoline products in 65-85% yield after 24 h reaction at pH 8 (FIG. 10B-C). […] With the exception of substrate 4c, increasing the pH to 9.0 promoted formation of the desired thiazole product (FIG. 21B-C). However, even under these conditions only substrate 4b (88%) yielded greater than 41% thiazole product (FIG. 21B-C). […] ArtGox appears especially intolerant of substitution or sp^2 hybridization at the β^3-position of substrates at the −1 site.
A typical reaction scale for analysis via LC-MS was 30 μL. Peptide substrate stock (3 L) suspended at 1 mM in 10 mM bicine, 150 mM NaCl, 1 mM TCEP, pH 9.0 was added to 21 L of reaction buffer (7.14 mM ATP, 7.14 mM MgCl2, 2.86 mM FMN, 100 mM bicine, 150 mM NaCl, 1 mM TCEP, pH 8.0 or 9.0). Separately, aliquots of MicD-F (500 M in 20 mM HEPES, 150 mM NaCl, 1 mM TCEP, pH 7.4) and ArtGox (800 M in 20 mM HEPES, 150 mM NaCl, 1 mM TCEP, pH 7.4) were thawed on ice. The thawed enzyme aliquots were then diluted with cold storage buffer (20 mM HEPES, 150 mM NaCl, 1 mM TCEP, pH 7.4) to a concentration equal to 10× the desired enzyme concentration. The peptide and enzyme solutions were then incubated at 37° C. for 15 minutes. After temperature equilibration, enzyme solutions (3 μL of each) were added to the peptide solution and gently pipette mixed. The resulting solution was then incubated at 37° C. for the indicated amount of time before LC-MS analysis.
To remove 6×His-tagged enzymes, Ni-NTA (Qiagen, Hilden, Germany) slurry and crude reaction were mixed 1:1 by volume and incubated on ice for 30 minutes with occasional agitation. The Ni-NTA resin was then removed by centrifugation at 21,300×g for 10 minutes at 4° C. Enzyme-depleted reaction mixture (1 μL) was used for LC-MS analysis which was performed on an Agilent 1290 Infinity II HPLC connected to an Agilent 6530B QTOF AJS-ESI. The mobile phase for LC-MS was water and acetonitrile with 0.1% (v/v) formic acid and a flow rate of 0.7 mL/min. Each sample was injected onto an Eclipse XDB C-18 column (2.1×50 mm, 1.8-Micron, room temperature, Agilent) and separated using a linear gradient from 5 to 95% acetonitrile over 4.5 minutes after an initial hold at 5% acetonitrile for 0.5 minutes. The following parameters were used during acquisition: Fragmentor voltage 175 V, gas temperature 300° C., gas flow 8 L/min, sheath gas temperature 350° C., sheath gas flow 11 L/min, nebulizer pressure 35 psi, skimmer voltage 65 V, Vcap 3500 V, 1 spectra/s.

[2] = system: MicD-F; test: MicD-F-catalyzed cyclodehydration of leader-free peptide substrates, LC-MS; assay type: biochemical, Microcystis aeruginosa; details: pH 8.0, 37° C.; for cyclodehydration by MicD-F: 50 mol % MicD-F, 24 hours
Chain of MicD-F (as listed by the source): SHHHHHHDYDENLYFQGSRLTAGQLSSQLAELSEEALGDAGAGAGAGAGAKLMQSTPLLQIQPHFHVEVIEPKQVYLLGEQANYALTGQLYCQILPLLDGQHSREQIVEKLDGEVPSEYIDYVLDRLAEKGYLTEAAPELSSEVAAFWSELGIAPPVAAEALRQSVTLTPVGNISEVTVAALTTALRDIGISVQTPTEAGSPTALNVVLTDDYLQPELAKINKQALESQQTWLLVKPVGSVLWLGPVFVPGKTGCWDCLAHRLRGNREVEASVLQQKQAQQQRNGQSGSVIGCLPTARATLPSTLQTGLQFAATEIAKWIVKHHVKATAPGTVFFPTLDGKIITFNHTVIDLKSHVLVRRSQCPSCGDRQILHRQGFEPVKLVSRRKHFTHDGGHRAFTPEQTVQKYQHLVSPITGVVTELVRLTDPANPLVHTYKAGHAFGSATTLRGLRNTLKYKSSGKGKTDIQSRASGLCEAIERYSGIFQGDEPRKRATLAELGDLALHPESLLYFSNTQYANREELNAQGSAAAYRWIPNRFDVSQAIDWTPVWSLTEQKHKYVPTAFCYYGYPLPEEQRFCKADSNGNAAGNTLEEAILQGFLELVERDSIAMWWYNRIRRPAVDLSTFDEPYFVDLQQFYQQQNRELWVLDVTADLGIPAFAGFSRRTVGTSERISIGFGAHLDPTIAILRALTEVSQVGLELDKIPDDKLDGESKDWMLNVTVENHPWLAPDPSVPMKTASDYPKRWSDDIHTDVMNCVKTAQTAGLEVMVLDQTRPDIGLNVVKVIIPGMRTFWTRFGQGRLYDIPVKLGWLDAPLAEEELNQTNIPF
Method: We began by exploring the tolerance of MicD-F for sequences containing non-α-amino acid monomers at the +1 site (FIG. 8A and FIG. 9A-B). A series of nine potential substrates were prepared in which a non-α-amino acid preceded the reaction site (substrates 1(a-i)). Monomers evaluated included arenes, aramids, fluorophores, and linear and cyclic β-amino acids. […] Cyclization was analyzed initially via liquid chromatography-mass spectrometry (LC-MS) and the extent of product formation estimated by integrating the extracted ion chromatogram (FIG. 9B-C). Virtually every substrate examined underwent MicD-F-catalyzed cyclization to the corresponding thiazoline under these conditions. Substrates containing electron-withdrawing or donating aromatic rings, bulky multi-ring systems, and linear and cyclic β-amino acids were all cyclized efficiently by MicD-F, with yields between 91 and 99% (products 2(a-i)). UHPLC analysis of each reaction mixture confirmed that thiazolines 2a-i were the sole reaction products under these conditions (FIG. 16).
A typical reaction scale for analysis via LC-MS was 30 μL. Peptide substrate stock (3 μL) suspended at 1 mM (10 mM bicine, 150 mM NaCl, 1 mM TCEP, pH 9.0) was added to 24 μL of reaction buffer (6.25 mM ATP, 6.25 mM MgCl2, 100 mM bicine, 150 mM NaCl, 1 mM TCEP, pH 8.0 or 9.0). Separately, an aliquot of MicD-F (500 M in 20 mM HEPES, 150 mM NaCl, 1 mM TCEP, pH 7.4) was thawed on ice. The thawed enzyme aliquot was then diluted with cold storage buffer (20 mM HEPES, 150 mM NaCl, 1 mM TCEP, pH 7.4) to a concentration equal to 10× the desired enzyme concentration. The peptide and enzyme solutions were then incubated at 37° C. for 15 minutes. After temperature equilibration, enzyme solution (3 μL) was added to the peptide solution and gently pipette mixed. The resulting solution was then incubated at 37° C. for the indicated amount of time before LC-MS analysis.
To remove 6×His-tagged enzymes, Ni-NTA (Qiagen, Hilden, Germany) slurry and crude reaction were mixed 1:1 by volume and incubated on ice for 30 minutes with occasional agitation. […]

[3] = system: MicD-F and ArtGox; test: Reaction of protein substrates with MicD-F and ArtGox in tandem, LC-MS deconvoluted mass; assay type: biochemical, Microcystis aeruginosa; Arthrospira platensis; details: 50 mol % MicD-F, 80 mol % ArtGox, pH 9.0, 37° C., 24 hours
Method: Reactions of proteins with MicD-F and ArtGox were performed in the manner described above with minor modifications. The substrate stock was a 1 mM solution of protein in 20 mM HEPES, 150 mM NaCl, 1 mM TCEP, pH 7.4. Reactions were carried out at either 25° C. or 37° C. as indicated.
(§1) Unprocessed reaction mixture (1 μL) was used for LC-MS analysis which was performed on an Agilent 1290 Infinity II HPLC connected to an Agilent 6530B QTOF AJS-ESI. The mobile phase for LC-MS was water and acetonitrile with 0.1% (v/v) formic acid and a flow rate of 0.4 mL/min. Each sample was injected onto a Poroshell 300SB-C8 column (2.1×75 mm, 5-Micron, room temperature, Agilent) using a linear gradient from 5 to 55% acetonitrile over 8 minutes after an initial hold at 5% acetonitrile for 2 minutes (0.4 mL/min). The following parameters were used during acquisition: Fragmentor voltage 225 V, gas temperature 300° C., gas flow 10 L/min, sheath gas temperature 350° C., sheath gas flow 11 L/min, nebulizer pressure 35 psi, skimmer voltage 65 V, Vcap 5000 V, 1 spectra/s. Intact protein masses were obtained via deconvolution using the Maximum Entropy algorithm in Mass Hunter Bioconfirm (V10, Agilent).

[4] = system: MicD-F; test: Reaction of protein substrates (mCherry and Rop variants) with MicD-F, LC-MS deconvoluted mass; assay type: biochemical, Microcystis aeruginosa; details: 50 mol % MicD-F, 24 hours
Method: Reactions of proteins with MicD-F were performed in the manner described above with minor modifications. Namely, the substrate stock was a 1 mM solution of protein in 20 mM HEPES, 150 mM NaCl, 1 mM TCEP, pH 7.4.
as §1

[5] = 50 mol % MicD-F, 8 mol % ArtGox, pH 8.0, 37° C., 24 h
[6] = 50 mol % MicD-F, 8 mol % ArtGox, pH 8.0, 37° C., 24 h, −1 site substrates

## IC-[ACHC]-AYDG [substrate 4c]
[1]; [5]
  conversion into thiazoline: converted cleanly
  thiazole formation: no

## IC-[ACPC]-AYDG [substrate 4d]
[1]; [5]
  conversion into thiazoline: converted cleanly
  thiazole formation: no

## IC-[B2-Dimethyl]-AYDG [substrate 4b]
[1]; [6]
  yield of thiazole product: 70%
  yield of thiazoline product: 30%
[1]; 50 mol % MicD-F, 8 mol % ArtGox, pH 9.0, 37° C., 24 h, −1 site substrates
  yield of thiazole product: 88%

## IC-[B3-HIle]-AYDG [substrate 4a]
[1]; [5]
  conversion into thiazoline: converted cleanly
  thiazole formation: little

## ICAYDG [reference compound]
[1]; 5 mol % MicD-F, 40 mol % ArtGox, pH 8.0, 37° C., 16 h
  two-step conversion into thiazole: complete two-step conversion
[2]; 5 mol % MicD-F, 4 h
  conversion by MicD-F: complete conversion

## ICIAYDG [model peptide with α-amino acid Ile between the site of cyclization and the AYD motif, reference compound]
[1]; [5]
  thiazole formation: complete conversion
[2]
  cyclodehydration by MicD-F: complete reaction

## ITAYDG
[2]
  cyclodehydration by MicD-F: significant cyclodehydration

## mCherryC+: mCherry variant with MCAYDG appended to the C-terminus, SEQ ID NO: 9
[3]
  thiazole installation (mass shift relative to MicD-F only): expected −2 Da shift
[4]; pH 9.0, 37° C.
  cyclodehydration of mCherry variants to thiazoline (loss of water): virtually complete conversion
[4]; pH 9.0, 42° C.
  cyclodehydration of mCherry variants to thiazoline (loss of water): nearly completely converted
